Source: ChEMBL document CHEMBL1201862, “PubChem BioAssay data set” (2004)
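These data come from cells grown in 96-well plates and exposed to compound for 48 hours at five concentrations. Abbreviation: GI50, concentration required for 50% inhibition of growth.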 Calls of active or inactive are those of the source. No stated cut-off is given here; in the data, active = GI50 up to about 1.1 µM and inactive = higher.

Assays:
Test in all cases: NCI tumour cell line growth inhibition, 48 h
786-0 = test system: 786-0
A498 = test system: A498
A549 = test system: A549
ACHN = test system: ACHN
CAKI-1 = test system: CAKI-1
COLO 205 = test system: COLO 205
DMS-114 = test system: DMS-114
DMS-273 = test system: DMS-273
DU-145 = test system: DU-145
EKVX = test system: EKVX
HCC 2998 = test system: HCC 2998
HCT-116 = test system: HCT-116
HCT-15 = test system: HCT-15
HL-60 = test system: HL-60
HOP-18 = test system: HOP-18
HOP-62 = test system: HOP-62
HOP-92 = test system: HOP-92
HT-29 = test system: HT-29
Hs-578T = test system: Hs-578T
IGROV-1 = test system: IGROV-1
K562 = test system: K562
KM-20L2 = test system: KM-20L2
KM12 = test system: KM12
LOX IMVI = test system: LOX IMVI
LXFL 529 = test system: LXFL 529
M14 = test system: M14
M19-MEL = test system: M19-MEL
MCF7 = test system: MCF7
MDA-MB-231 = test system: MDA-MB-231
MDA-MB-435 = test system: MDA-MB-435
MDA-N = test system: MDA-N
MOLT-4 = test system: MOLT-4
Malme-3M = test system: Malme-3M
NCI-H226 = test system: NCI-H226
NCI-H23 = test system: NCI-H23
NCI-H460 = test system: NCI-H460
NCI-H522 = test system: NCI-H522
NCI/ADR-RES = test system: NCI/ADR-RES
OVCAR-3 = test system: OVCAR-3
OVCAR-4 = test system: OVCAR-4
OVCAR-5 = test system: OVCAR-5
OVCAR-8 = test system: OVCAR-8
PC-3 = test system: PC-3
RPMI-8226 = test system: RPMI-8226
RXF 393 = test system: RXF 393
SF-268 = test system: SF-268
SF-295 = test system: SF-295
SF-539 = test system: SF-539
SK-MEL-28 = test system: SK-MEL-28
SK-MEL-2 = test system: SK-MEL-2
SK-MEL-5 = test system: SK-MEL-5
SK-OV-3 = test system: SK-OV-3
SN12C = test system: SN12C
SNB-19 = test system: SNB-19
SNB-75 = test system: SNB-75
SNB-78 = test system: SNB-78
SR = test system: SR
SW-620 = test system: SW-620
T47D = test system: T47D
TK-10 = test system: TK-10
U-251 = test system: U-251
UACC-257 = test system: UACC-257
UACC-62 = test system: UACC-62
UO-31 = test system: UO-31
XF498 = test system: XF498
CCRF-CEM = test system: CCRF-CEM

Measured: GI50

C=CCNc1nc2c(s1)C(=O)c1ccccc1C2=O
inactive: 786-0 14.5 µM | A498 19.5 µM | A549 6.43 µM | ACHN 7.62 µM | CAKI-1 13.7 µM | COLO 205 20.1 µM | DMS-114 1.77 µM | DMS-273 9.82 µM | DU-145 18.6 µM | EKVX 15.6 µM | HCC 2998 20.7 µM | HCT-116 3.81 µM | HL-60 1.61 µM | HOP-18 11 µM | HOP-62 13.4 µM | HOP-92 9.31 µM | HT-29 21.8 µM | Hs-578T 32.1 µM | IGROV-1 8.73 µM | K562 4.76 µM | KM-20L2 19.1 µM | KM12 13.8 µM | LOX IMVI 4.31 µM | LXFL 529 11.4 µM | M14 5.12 µM | M19-MEL 1.76 µM | MCF7 6.25 µM | MDA-MB-231 10 µM | MDA-MB-435 1.91 µM | MDA-N 1.86 µM | MOLT-4 2.26 µM | Malme-3M 12.5 µM | NCI-H226 21.2 µM | NCI-H23 4.4 µM | NCI-H460 12 µM | NCI-H522 6.41 µM | NCI/ADR-RES 15.4 µM | OVCAR-3 12.1 µM | OVCAR-4 7.87 µM | OVCAR-5 21.7 µM | OVCAR-8 3.73 µM | PC-3 12.6 µM | RPMI-8226 3.12 µM | RXF 393 18.6 µM | SF-268 12.4 µM | SF-295 14.8 µM | SF-539 8.11 µM | SK-MEL-28 9.71 µM | SK-MEL-2 10.9 µM | SK-MEL-5 1.7 µM | SK-OV-3 17.9 µM | SN12C 11.6 µM | SNB-19 14.9 µM | SNB-75 18.7 µM | SNB-78 24.4 µM | SR 3.43 µM | SW-620 12.9 µM | T47D 14.4 µM | TK-10 19.2 µM | U-251 7.55 µM | UACC-257 2.7 µM | UACC-62 3.9 µM | UO-31 13.3 µM | XF498 20.4 µM
8.51 µM: HCT-15

FC(F)(F)c1ccc2nc(Nc3ccc(Cl)c(Cl)c3)c(-c3ccccc3)nc2c1
0.659 µM: HCT-15
inactive: 786-0 12.1 µM | A549 17.1 µM | ACHN 40.3 µM | CCRF-CEM 30.5 µM | COLO 205 61.8 µM | DMS-273 6.55 µM | EKVX > 100 µM | HCC 2998 86.7 µM | HCT-116 7.66 µM | HL-60 8.57 µM | HOP-18 > 100 µM | HOP-62 > 100 µM | HOP-92 46.7 µM | HT-29 26 µM | KM-20L2 55.7 µM | LOX IMVI 13.8 µM | LXFL 529 8.3 µM | M19-MEL 48.5 µM | MOLT-4 6.81 µM | Malme-3M > 100 µM | NCI-H226 > 100 µM | NCI-H23 > 100 µM | NCI-H460 7.05 µM | OVCAR-3 37.5 µM | OVCAR-5 > 100 µM | OVCAR-8 21 µM | RPMI-8226 > 100 µM | RXF 393 39.1 µM | SF-268 14.6 µM | SF-295 18.7 µM | SF-539 19.4 µM | SK-MEL-28 82.8 µM | SK-MEL-2 > 100 µM | SN12C 75.2 µM | SNB-19 74 µM | SNB-78 27.4 µM | SR 6.64 µM | SW-620 33.4 µM | TK-10 73.1 µM | U-251 7.16 µM | UACC-257 85.5 µM | UO-31 > 100 µM | XF498 31.2 µM
